Data: patent US20020028918A1, “Styryl dyes” (KABUSHIKI KAISHA HAYASHIBARA SEIBUTSU KAGAKU KENKYUJO, priority 2000, published 2002)

Assays:
[1] = Light resistance of styryl dye thin layer under xenon lamp exposure; format: physicochemical; details: thin layer on glass, 500 W xenon lamp 25 min, transmittance at 600 nm
Experimental: Light-resistance Improvement of Styryl Dyes
Thereafter, in the usual manner, a prescribed amount of the resulting solution was dropped on either surface of a polished glass substrate, 5 cm×5 cm, while the glass substrate was rotated at a rotation rate of 1,000 rpm for one minute to uniformly coat the solution thereupon, and sequentially blown with hot air and cold air to dry the coated solution.
The resulting glass substrates coated with the styryl dyes were measured for transmittance (T0) at a wavelength of 600 nm, and then exposed with light for 25 min using a 500 W xenon lamp. Immediately after that, the resulting substrates were remeasured for transmittance (T) at a wavelength of 600 nm, and the transmittance of T and T0 dye substrated for the Equation 1 to calculate the residual percentage (%). In parallel, control systems, which 15 (mg) of the conventional compound represented by Chemical Formula 44 was dissolved to TFP with or without two mg of the azo organic metal complex represented by Chemical Formula 38 as a light-resistant improver, were provided and treated similarly as above. [formula]

[2] = Thermal property by DTA and TGA (decomposition point)
Source text: Thermal Property of Cyanine Dye
An adequate amount of any one of the styryl dyes of the present invention in Table 1 as test specimens was placed in a vessel and subjected to conventional differential thermal analysis (hereinafter abbreviated as “DTA”) and thermogravimetric analysis (hereinafter abbreviated as “TGA”) using “MODEL TG/DTA 220”, a digital thermo analyzer commercialized by Seiko Instruments Inc., Tokyo, Japan, to determine their melting points, i.e., temperatures at which the styryl dyes as test specimens begin to absorb heat on TGA, and decomposition points, i.e., temperatures at which the styryl dyes as test specimens begin to lose their weight on DTA. In parallel, the conventional related compound represented by Chemical Formula 44 was analyzed similarly as above. […] In TGA and DTA, the environmental temperature was set to an increasing temperature mode at a rate of 10° C./min.

Residual percentage of dye (%) ([1]; no light-resistant improver added (Formula 26 is itself combined with azo organic metal complex anion)): 3.2% | Residual percentage of dye (%) ([1]; with addition of the azo organic metal complex of Chemical Formula 38): 89.5% | Decomposition point (° C.) ([2]; DTA/TGA, MODEL TG/DTA 220, temperature increasing at 10° C./min): 236.1 °C
SMILES: CN(C)c1ccc(C=CC2=[N+](C)c3ccc(Cl)cc3C2(C)C)cc1.Cc1ccc(S(=O)(=O)[O-])cc1 [Chemical Formula 44]
Decomposition behaviour around the decomposition point ([2]; TGA/DTA, 10° C./min): very slowly decomposed at around the decomposition point
